Where “and” joins values, the source holds several entries; their conditions need not be identical. Equal entries are not always repeated. Where a SMILES comes first, the peptide text is derived from it. [ ]: non-standard residue; d: D form. The star is where a group is joined. pNA = O=[N+]([O-])c1ccc(N*)cc1
Tests used:
Urokinase (UK) = target: T1, Urokinase (UK) (Homo sapiens, UniProt P00749); assay: Substrate specificity: reaction of chromogenic substrates with urokinase, absorbance read-out; format: biochemical; conditions: for Absorbance (O.D.) UK: S0 = 2.0 mM, 37° C., 5 minutes, pH 8.2; for Relative reactivity with UK: PS-2203N taken as 100, initial substrate concentration S0 = 2 mM
T1 construct: purchased Mochida Pharmaceutical Lot No. 2A-139 (catalogue number not given)
Procedure: (§1) The specificities of the novel substrates synthesized above were examined by reacting them with various enzymes.
(§2) (1) Substrate solution: 2 mmoles/liter H2 O
(§3) (2) Buffer solution: Concentrations of Tris, NaCl and CaCl2 and pH value of reaction for every enzyme were as follows: […]
(§4) Into a silicone-treated test tube made of hard glass or a plastic were introduced 0.3 ml of a buffer solution and 0.1 ml of an enzyme reagent. After preheating them for 5 minutes in a thermostated bath kept at 37° C., 0.1 ml of substrate solution was added and an enzyme reaction was carried out at 37° C. for 5 minutes. When an exact five minutes had passed, 2.0 ml of the reaction stopper or the reaction-stopping color-forming reagent was added to stop the enzyme reaction, and subsequently the reaction mixture was allowed to stand at 37° C. for 10 minutes. Then, absorbance was measured at 405 nm or 700 nm.

Thrombin (TH) = target: T2, Thrombin (TH) (Bos taurus, UniProt P00735); assay: Substrate specificity: reaction of chromogenic substrates with thrombin, absorbance read-out; format: biochemical, Bovine; conditions: for Absorbance (O.D.) TH: S0 = 2.0 mM, 37° C., 5 minutes, pH 8.5; for Relative reactivity with TH: PS-2203N taken as 100, initial substrate concentration S0 = 2 mM; for Reactivity with thrombin: relative to Z-D-Orn-Phe-Arg-PNA (PS-2203N) as 100
T2 construct: purchased Mochida Pharmaceutical Lot No. 65146 (catalogue number not given)
Procedure: as §1, §2, §3, §4

[1] = target: T3, Glandular kallikrein (HGK) (Homo sapiens, UniProt P06870); assay: Substrate specificity: reaction of chromogenic substrates with glandular kallikrein, absorbance read-out; format: biochemical, Human urine; conditions: for Absorbance (O.D.) HGK: S0 = 2.0 mM, 37° C., 5 minutes, pH 9.0; for Relative reactivity with HGK: PS-2203N taken as 100, initial substrate concentration S0 = 2 mM; for Reactivity with glandular kallikrein: relative to Z-D-Orn-Phe-Arg-PNA (PS-2203N) as 100
T3 construct: purchased Green Cross Lot No. 1003SM (catalogue number not given); host or cells: human urine
T3 sequence (P06870 25-262): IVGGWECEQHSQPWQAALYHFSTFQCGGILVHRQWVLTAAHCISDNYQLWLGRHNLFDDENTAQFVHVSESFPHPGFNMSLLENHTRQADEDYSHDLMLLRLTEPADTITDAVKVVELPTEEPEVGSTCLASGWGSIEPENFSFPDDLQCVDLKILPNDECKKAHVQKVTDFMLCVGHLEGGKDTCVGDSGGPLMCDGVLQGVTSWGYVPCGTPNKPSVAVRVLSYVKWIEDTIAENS
Procedure: as §1, §2, §3, §4

Plasmin (PL) = target: T4, Plasmin (PL) (Homo sapiens, UniProt P00747); assay: Substrate specificity: reaction of chromogenic substrates with plasmin, absorbance read-out; format: biochemical; conditions: for Absorbance (O.D.) PL: S0 = 2.0 mM, 37° C., 5 minutes, pH 7.8; for Relative reactivity with PL: PS-2203N taken as 100, initial substrate concentration S0 = 2 mM; for Reactivity with plasmin: relative to Z-D-Orn-Phe-Arg-PNA (PS-2203N) as 100
T4 construct: purchased Green Cross Lot No. PL-35 (catalogue number not given)
T4 sequence (P00747 581-810 limits assumed): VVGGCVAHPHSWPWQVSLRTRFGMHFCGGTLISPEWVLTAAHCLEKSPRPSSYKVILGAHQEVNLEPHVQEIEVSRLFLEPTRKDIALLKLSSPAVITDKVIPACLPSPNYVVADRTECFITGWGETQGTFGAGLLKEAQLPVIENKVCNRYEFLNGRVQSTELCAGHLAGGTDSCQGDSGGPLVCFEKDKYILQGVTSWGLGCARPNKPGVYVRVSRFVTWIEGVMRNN
T4 sequence (P00747 97-580 partner limits assumed): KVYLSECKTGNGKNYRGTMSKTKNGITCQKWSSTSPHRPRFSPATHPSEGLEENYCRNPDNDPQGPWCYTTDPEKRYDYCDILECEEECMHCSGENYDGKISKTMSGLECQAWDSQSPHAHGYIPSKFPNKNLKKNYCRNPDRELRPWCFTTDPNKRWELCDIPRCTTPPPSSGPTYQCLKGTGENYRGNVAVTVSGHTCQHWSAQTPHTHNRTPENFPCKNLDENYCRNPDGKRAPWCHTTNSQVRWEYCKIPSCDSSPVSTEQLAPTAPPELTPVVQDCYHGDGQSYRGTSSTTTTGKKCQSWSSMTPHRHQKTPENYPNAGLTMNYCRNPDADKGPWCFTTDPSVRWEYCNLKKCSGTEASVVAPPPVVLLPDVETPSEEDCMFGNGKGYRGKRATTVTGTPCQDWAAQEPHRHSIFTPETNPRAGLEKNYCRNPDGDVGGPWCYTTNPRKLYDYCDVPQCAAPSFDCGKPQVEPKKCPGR
Procedure: as §1, §2, §3, §4

Plasma kallikrein (HPK) = target: T5, Plasma kallikrein (HPK) (Homo sapiens, UniProt P03952); assay: Substrate specificity: reaction of chromogenic substrates with plasma kallikrein, absorbance read-out; format: biochemical; conditions: for Absorbance (O.D.) HPK: S0 = 2.0 mM, 37° C., 5 minutes, pH 9.0; for Relative reactivity with HPK: PS-2203N taken as 100, initial substrate concentration S0 = 2 mM
T5 construct: purchased AB Kabi Diagnostica Lot No. 3740152 (catalogue number not given)
T5 sequence (P03952 391-638 limits assumed): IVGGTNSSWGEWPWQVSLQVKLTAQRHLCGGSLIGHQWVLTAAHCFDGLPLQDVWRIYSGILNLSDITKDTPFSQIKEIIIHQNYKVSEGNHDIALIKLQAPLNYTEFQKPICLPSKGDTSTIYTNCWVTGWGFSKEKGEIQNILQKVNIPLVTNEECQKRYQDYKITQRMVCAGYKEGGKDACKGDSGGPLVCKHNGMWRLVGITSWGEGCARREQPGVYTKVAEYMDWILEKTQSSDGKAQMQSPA
T5 sequence (P03952 20-390 partner limits assumed): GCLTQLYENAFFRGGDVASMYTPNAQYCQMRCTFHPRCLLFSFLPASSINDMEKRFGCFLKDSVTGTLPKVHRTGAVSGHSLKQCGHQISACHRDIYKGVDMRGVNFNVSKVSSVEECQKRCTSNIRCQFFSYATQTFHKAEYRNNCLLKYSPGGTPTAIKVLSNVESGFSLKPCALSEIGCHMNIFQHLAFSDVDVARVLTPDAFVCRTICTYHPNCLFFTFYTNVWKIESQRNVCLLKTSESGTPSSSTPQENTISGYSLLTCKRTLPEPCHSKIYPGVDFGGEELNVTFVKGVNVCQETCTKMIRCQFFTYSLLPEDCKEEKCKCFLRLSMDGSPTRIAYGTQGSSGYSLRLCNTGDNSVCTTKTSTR
Procedure: as §1, §2, §3, §4

Xa factor (FXa) = target: T6, Xa factor (FXa) (Bos taurus, UniProt P00743); assay: Substrate specificity: reaction of chromogenic substrates with Xa factor, absorbance read-out; format: biochemical, Bovine; conditions: for Absorbance (O.D.) FXa: S0 = 2.0 mM, 37° C., 5 minutes, pH 8.3; for Relative reactivity with FXa: PS-2203N taken as 100, initial substrate concentration S0 = 2 mM; for Reactivity with Xa factor: relative to Z-D-Orn-Phe-Arg-PNA (PS-2203N) as 100
T6 construct: purchased Sigma Lot No. 73F-9450 (catalogue number not given)
T6 sequence (P00743 234-492 limits assumed): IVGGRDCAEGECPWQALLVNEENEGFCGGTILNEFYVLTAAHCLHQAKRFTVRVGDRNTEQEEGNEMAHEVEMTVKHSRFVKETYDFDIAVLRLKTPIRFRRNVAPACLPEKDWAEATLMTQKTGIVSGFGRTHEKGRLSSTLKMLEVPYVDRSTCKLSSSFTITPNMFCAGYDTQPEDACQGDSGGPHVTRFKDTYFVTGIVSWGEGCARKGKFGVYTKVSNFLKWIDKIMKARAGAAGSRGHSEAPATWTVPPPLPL
T6 sequence (P00743 41-180 partner limits assumed): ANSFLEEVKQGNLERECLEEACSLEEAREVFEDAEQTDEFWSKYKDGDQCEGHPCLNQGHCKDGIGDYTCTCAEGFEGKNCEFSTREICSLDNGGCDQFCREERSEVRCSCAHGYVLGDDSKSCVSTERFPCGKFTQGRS
Procedure: as §1, §2, §3, §4

[2] = 700 nm (CHA substrates, pentaamine ferroate)

Row | Compound | Absorbance (O.D.) UK (Urokinase (UK); [2]) [O.D.] | Absorbance (O.D.) TH (Thrombin (TH); [2]) [O.D.] | Absorbance (O.D.) HGK [1, 2] [O.D.] | Absorbance (O.D.) PL (Plasmin (PL); [2]) [O.D.] | Absorbance (O.D.) HPK (Plasma kallikrein (HPK); [2]) [O.D.] | Absorbance (O.D.) FXa (Xa factor (FXa); [2]) [O.D.] | Relative reactivity with UK (Urokinase (UK)) | Relative reactivity with TH (Thrombin (TH)) | Relative reactivity with HGK [1] | Relative reactivity with PL (Plasmin (PL)) | Relative reactivity with HPK (Plasma kallikrein (HPK)) | Relative reactivity with FXa (Xa factor (FXa)) | other results
1 | Tos-D-Lys-Phe-Arg-CHA.2HCl [PS-2205] | 0.0 | 0.015 | 0.014 | 0.158 | 0.255 | 0.010 |  |  |  |  |  |  | 
2 | Z--D-Lys--Phe--Arg--CHA.2HCl [PS-2200] | 0.002 | 0.009 | 0.010 | 0.094 | 0.316 | 0.046 |  |  |  |  |  |  | 
3 | Z-D-Orn-Phe-Arg-PNA [PS-2203N, reference compound] |  |  |  |  |  |  | 100 | 100 | 100 | 100 | 100 | 100 | Absorbance (O.D.) UK (Urokinase (UK); 405 nm (PNA substrates)): 0.021 O.D.; Absorbance (O.D.) TH (Thrombin (TH); 405 nm (PNA substrates)): 0.056 O.D.; Absorbance (O.D.) HGK ([1]; 405 nm (PNA substrates)): 0.013 O.D.; Absorbance (O.D.) PL (Plasmin (PL); 405 nm (PNA substrates)): 0.250 O.D.; Absorbance (O.D.) HPK (Plasma kallikrein (HPK); 405 nm (PNA substrates)): 0.250 O.D. and 0.249 O.D.; Absorbance (O.D.) FXa (Xa factor (FXa); 405 nm (PNA substrates)): 0.230 O.D.
4 | MOC--D-Lys--Phe--Arg--CHA.2HCl [PS-2204] | 0.0 | 0.010 | 0.016 | 0.107 | 0.301 | 0.046 |  |  |  |  |  |  | 
5 | N=C(N)NCCC[C@H](NC(=O)[C@H](Cc1ccccc1)NC(=O)[C@H]1CCCN1)C(=O)Nc1ccc([N+](=O)[O-])cc1 [S-2302, H-D-Pro-Phe-Arg-PNA, reference compound] (H-[dP]-Phe-Arg-pNA) |  |  |  |  |  |  | 50 | 269 | 169 | 48 | 131 | 169 | Absorbance (O.D.) UK (Urokinase (UK); 405 nm (PNA substrates)): 0.011 O.D.; Reactivity with urokinase (Urokinase (UK); relative to Z-D-Orn-Phe-Arg-PNA (PS-2203N) as 100): 50%; Absorbance (O.D.) TH (Thrombin (TH); 405 nm (PNA substrates)): 0.152 O.D.; Reactivity with thrombin (Thrombin (TH)): 269%; Absorbance (O.D.) HGK ([1]; 405 nm (PNA substrates)): 0.021 O.D.; Reactivity with glandular kallikrein [1]: 169%; Absorbance (O.D.) PL (Plasmin (PL); 405 nm (PNA substrates)): 0.121 O.D.; Reactivity with plasmin (Plasmin (PL)): 48%; Absorbance (O.D.) HPK (Plasma kallikrein (HPK); 405 nm (PNA substrates)): 0.325 O.D.; Absorbance (O.D.) FXa (Xa factor (FXa); 405 nm (PNA substrates)): 0.389 O.D.; Reactivity with Xa factor (Xa factor (FXa)): 169%
6 | SBz--D-Lys--Phe--Arg--CHA.2HCl [PS-2206] | 0.0 | 0.007 | 0.010 | 0.094 | 0.234 | 0.016 |  |  |  |  |  |  | 
7 | Z-D-Orn-Phe-Arg-CHA [PS-2203] | 0.0 | 0.007 | 0.005 | 0.079 | 0.331 | 0.022 | 0 | 2 | 15 | 14 | 59 | 4 | Reactivity with thrombin (Thrombin (TH)): 2%; Reactivity with glandular kallikrein [1]: 15%; Reactivity with plasmin (Plasmin (PL)): 14%; Reactivity with Xa factor (Xa factor (FXa)): 4%
8 | i-BOC--D-Lys--Phe--Arg--CHA.2HCl [PS-2202] | 0.0 | 0.005 | 0.006 | 0.128 | 0.245 | 0.040 |  |  |  |  |  |  | 

From patent US4816562A, “Novel substrate for plasma kallikrein and a method for measuring biological components using the same” (Nitto Boseki Co., Ltd., priority 1985, dated 1989)
